According to patent US9907760B2 (LIBRAGEN, priority 2010, dated 2018):

Legend:
Format in all cases: cell-based
normal human fibroblasts [1] = assay: Hyaluronic acid production by normal human fibroblasts treated with supernatant of treated keratinocytes (HA-ELISA); settings: supernatant on fibroblasts 48 hrs; for % stimulation of hyaluronic acid synthesis: vs Control
Experimental: Normal human dermal fibroblasts were cultured to confluence. Cells were treated for 48 hours with supernatants of normal human keratinocytes previously grown in the presence of the test products. The fibroblast supernatants, containing hyaluronic acid, were collected and assayed immediately. Hyaluronic acid was quantified with an ELISA microtiter plate. Protein content was determined for each well of the microtiter plate.
Primocultures of normal human keratinocytes (NHK) were obtained from cells isolated from skin specimens from plastic surgery.
NHK were seeded at a density of 130,000 cells/well in specific KSFM culture medium (Gibco®, Invitrogen) in a 24-well plate. The plate was placed in a humid incubator (37° C., 5% CO2) for 24 hours.
Primocultures of normal human fibroblasts (NHF) were obtained from cells isolated from skin specimens from plastic surgery.
NHF were seeded at a density of 90,000 cells/well in E-199 culture medium supplemented with 0.5% FCS (Gibco® Invitrogen) in a 24-well plate. The plate was placed in a humid incubator (37° C., 5% CO2) for 24 hours.
The two cell types—NHK and NHF—were plated 48 hours apart.
The different products at the respective concentrations (diluted in KSFM medium, 600 μl) were contacted with NHK cells for 48 hours. Untreated cells were used as the control condition. Two plates were used to separately test NAG, and NAG+vitamin A propionate, on the one hand, and NAG6P, and NAG6P+vitamin A propionate, on the other hand.
Each treatment condition was evaluated on three wells of NHK cells.
After 48 hours, a fraction of NHK cell supernatant (300 μl/well) was removed and transferred well for well into NHF cell supernatants (300 μl E-199/well−fresh medium without FCS).
This gave a final volume of 600 μl/well (50:50 ratio of KSFM/E-199 medium) which remained on the NHF cells for 48 hours.
After 48 hours of treatment, the NHF cell supernatant was collected and centrifuged.
Hyaluronic acid was assayed in the cell supernatants as described in example 1.
The assay was performed in duplicate for each well.
Optical densities (OD) measured on each sample were plotted on a graph (specific standard curve in the kit). The hyaluronic acid concentration was expressed in ng/ml.
The amount of hyaluronic acid released by the cells was determined for each well and for each treatment condition, relative to the cell content expressed as μg of protein. Thus, the final result was expressed as ng/ml of hyaluronic acid per μg of protein.
(§1) A mean value was calculated for wells treated with the same concentration of test product. This mean was compared with the mean of the control wells (Student t test−comparison of means−significant difference at 95% if p<0.05* and at 99% if p<0.01**).
The percent stimulation induced by the test products was determined by comparing the mean values of the control and treatment conditions: % Stimulation=(Treated−Control)/Control

normal human fibroblasts [2] = assay: Procollagen 1 production by normal human fibroblasts treated with supernatant of treated keratinocytes (EIA); settings: supernatant on fibroblasts 48 hrs; for % stimulation (procollagen 1): vs Control
Experimental: This experiment was carried out according to the method described in example 3. Fibroblast supernatants, containing procollagen 1, were collected and assayed immediately for procollagen 1 by means of an EIA microtiter plate.
After 48 hours of treatment, NHF cell supernatants were collected and centrifuged.
Procollagen 1 was assayed in the cell supernatants by the method described in the Procollagen Type 1 C-peptide EIA kit (MK101, Takara). This is an EIA assay with spectrophotometric detection at 450 nm (Safire, Tecan).
Duplicate determinations were carried out for two wells whereas the third well was assayed only once.
Optical densities (OD) measured on each sample were plotted on a graph (specific standard curve in the kit). The procollagen 1 concentration was expressed in ng/ml.
As in example 3, the protein content was determined in the cell pellets of the supernatants for which procollagen 1 was assayed.
as §1, with “Thus, the final result was expressed as ng/ml of procollagen 1 per μg of protein. A” for “A”, “means, significant” for “means−significant”
The percent stimulation produced by the test products was determined by comparing the mean values of the control and treatment conditions: % Stimulation=(Treated−Control)/Control

normal human fibroblasts [3] = assay: Proliferation of normal human fibroblasts treated with supernatant of treated keratinocytes (Cell Proliferation ELISA, BrdU); settings: supernatant on fibroblasts 48 hrs
Experimental: This experiment evaluated the proliferation of normal human fibroblasts (dermal primocultures) after 48 hours of treatment with supernatant transferred from human keratinocytes.
The “Cell Proliferation ELISA, BrdU” test quantifies cell proliferation by measuring incorporation of bromodeoxyuridine (BrdU) during DNA synthesis followed by luminescence detection.
Cells were placed in the presence of the treatment for a specified time (incubator at 37° C., 5% CO2). The pyrimidine analogue 5-bromo-2′-deoxyuridine (BrdU) was then added and the cells were further incubated (37° C., 5% CO2) for a minimum of 2 hours, during which time BrdU is incorporated in place of thymidine into the DNA of proliferating cells.
The culture medium was removed, then the cells were fixed and the DNA denatured at the same time (antibody accessibility). An anti-BrdU-POD (peroxidase) antibody was added; this antibody binds to BrdU in newly synthesized DNA. The immune complex was then detected by addition of luminol substrate with measurement of luminescence (Genios, Tecan).
NHF were seeded at a density of 5,000 cells/well in E-199 culture medium (Gibco® Invitrogen) in a 96-well Optilux white plate (BD Falcon 353947). The plate was placed in a humid incubator (37° C., 5% CO2) for 24 hours.
The different products at the respective concentrations (diluted in KSFM culture medium, 600 μl) were contacted with NHK cells for 48 hours. Control cells were left untreated. Each treatment conditions was evaluated on three wells of NHK cells.
After 48 hours, a fraction of the NHK cell supernatant was removed. Each sample of supernatant (2 times 100 μl) from a well on the NHK plate (24 wells) was transferred to two wells in the NHF plate already containing 100 μl of E-199 medium per well. […]
Cell proliferation was quantified by the method described in the “Cell Proliferation ELISA, BrdU” kit (Roche Applied Science No. 11669915001). This is an immunological assay with luminescence detection (Genios, Tecan).
The means of the luminescence values (RLU/s) of six wells with the same treatment condition were determined. […] Proliferation of treated cells was expressed as a percentage of the control(untreated cells−100%)(OD treated/OD control×100).

human skin explants = assay: General morphology of living human skin explants (Masson trichrome)
Experimental: (§2) In particular, the following parameters were evaluated: • general skin morphology after staining with Masson trichrome, • acid glycosaminoglycan (GAG) content after alcian blue staining, • expression level of the hyaluronic acid CD44 receptor after immunolabeling of this receptor.
(§3) Thirty-three explants (approximately 10 mm in diameter) were taken from a person (P712AB36) undergoing abdominoplasty. The explants were divided into 11 groups of three explants and placed in special skin explant survival medium.
(§4) RetinOx+Day cream was applied on the explants at 1 mg/cm^2 on days D0, D2, D3, D6 and D8.
(§5) On D0, D2, D3, D6 and D8, 30 μA of products P1, P2 and P3 were deposited on filter paper disks placed on the explants.
(§6) On D0, the three explants in group CO were sampled and cut in two. One-half was fixed in ordinary Bouin's solution and the other half stored at −80° C. On D6 and D10, three explants from each group were sampled and treated in the same manner.
(§7) After 48 hours of fixing in ordinary Bouin's solution, samples were dried and impregnated in paraffin using a Leica 1020 automated tissue processor, then embedded according to operating procedure MO-H-153 using a Leica EG 1160 embedding station. 5 μm sections were prepared according to operating procedure MO-H-173 using a Leica RM 2125 Minot microtome and mounted on Superfrost® histologic glass microscope slides.
General morphology was studied on paraffin sections stained with Masson trichrome, Goldner variant, according to operating procedure MO-H-157.

[4] = test system: acid GAGs in the papillary dermis; assay: Acid glycosaminoglycan (GAG) content of human skin explants (alcian blue staining, image analysis)
Experimental: as §2, §3, §4, §5, §6, §7
Acid GAGs were visualized with alcian blue staining. They were present throughout the papillary dermis.
In this zone, the GAGs under study are stained blue and correspond to acid GAGs.
The intensity of staining was quantified by image analysis.
Acid GAGs were quantified by image analysis. The results are expressed as the percentage of the analyzed area in Table 10 below.

[5] = test system: hyaluronic acid CD44 receptor; assay: Expression of the hyaluronic acid CD44 receptor in human skin explants (immunolabeling)
Experimental: as §2, §3, §4, §5, §6
Frozen sections were labeled for the CD44 receptor using mouse anti-CD44 monoclonal antibody (Invitrogen MHC D4400) at 1:100 dilution incubated for 1 hour at room temperature with a biotin/streptavidin amplifier system with FITC. Nuclei were counterstained with propidium iodide.

With `CC(=O)N[C@H]1C(O)O[C@H](COP(=O)(O)O)[C@@H](O)[C@@H]1O` (some centres unmarked) [NAG6P, N-acetylglucosamine-6-phosphate] the “Hyaluronic acid” value (normal human fibroblasts [1]; 5 mM on keratinocytes 48 hrs) was 3524.1 ± 198.6 ng/mL, the “Hyaluronic acid (ng/ml/μg prot.)” value (normal human fibroblasts [1]; 5 mM on keratinocytes 48 hrs) was 401.7 ± 38.3 ng/ml/μg prot and the “% stimulation of hyaluronic acid synthesis” value (normal human fibroblasts [1]; 5 mM on keratinocytes 48 hrs) was 7%. The “Hyaluronic acid” value (normal human fibroblasts [1]; 10 mM on keratinocytes 48 hrs) was 3507.6 ± 213.3 ng/mL, the “Hyaluronic acid (ng/ml/μg prot.)” value (normal human fibroblasts [1]; 10 mM on keratinocytes 48 hrs) was 382.9 ± 20.5 ng/ml/μg prot and the “% stimulation of hyaluronic acid synthesis” value (normal human fibroblasts [1]; 10 mM on keratinocytes 48 hrs) was 2%. For the same molecule, the “Procollagen 1” value (normal human fibroblasts [2]; 5 mM on keratinocytes 48 hrs) was 653.4 ± 36.6 ng/mL, the “Procollagen 1 (ng/ml/μg prot.)” value (normal human fibroblasts [2]; 5 mM on keratinocytes 48 hrs) was 74.6 ± 5.3 ng/ml/μg prot and the “% stimulation (procollagen 1)” value (normal human fibroblasts [2]; 5 mM on keratinocytes 48 hrs) was 2%. For the same molecule, the “Procollagen 1” value (normal human fibroblasts [2]; 10 mM on keratinocytes 48 hrs) was 677.7 ± 64.6 ng/mL, the “Procollagen 1 (ng/ml/μg prot.)” value (normal human fibroblasts [2]; 10 mM on keratinocytes 48 hrs) was 72.7 ± 4.4 ng/ml/μg prot and the “% stimulation (procollagen 1)” value (normal human fibroblasts [2]; 10 mM on keratinocytes 48 hrs) was −1%. The RLU (normal human fibroblasts [3]; 5 mM on keratinocytes 48 hrs) was 4985 ± 184 RLU, the RLU (normal human fibroblasts [3]; 10 mM on keratinocytes 48 hrs) was 4903 ± 377 RLU and the General morphology (human skin explants; D10, NAG6P) was “considerable modifications of epidermal morphology”. The General morphology (human skin explants; D10, NAG6P 0.01% (product P3)) was “clear reorganization/strengthening of the dermal-epidermal junction”, the General morphology (human skin explants; D10, NAG6P, listed as N-acetylglucosamine-6-phosphate) was “does not cause acanthosis” and the “Acid GAGs, visual analysis” value ([4]; D6, NAG6P 1% to 0.01%) was “moderate along the DEJ and present throughout the papillary dermis, in a dose-dependent manner”. The “Percentage of area occupied by acid GAGs in the papillary dermis, % of analyzed area, Mean” value (“Percentage … % of analyzed area, Mean” below) ([4]; D10, NAG6P 0.01%) was 14.0%, the “Percentage … % of analyzed area, Mean” value ([4]; D10, NAG6P 0.1%) was 16.3% and the “Percentage … % of analyzed area, Mean” value ([4]; D10, NAG6P 1%) was 21.0%. For the same molecule, the “Acid GAGs, visual analysis” value ([4]; D10, NAG6P 1% to 0.01%) was “moderately present along the DEJ and throughout the papillary dermis, in a dose-dependent manner”, the CD44 expression ([5]; D6, NAG6P 0.01%) was “overexpression was very moderate” and the CD44 expression ([5]; D6, NAG6P 0.1%) was “mildly overexpressed”. The CD44 expression ([5]; D6, NAG6P 1%) was “mildly overexpressed” and the CD44 expression ([5]; D10, NAG6P 0.01%, epidermis and papillary dermis) was “overexpression was very clear”.
